For one molecule, Activity results are on record in ChEMBL document CHEMBL1155798, “Enhanced affinity of ketotifen toward tamarind seed polysaccharide in comparison with hydroxyethylcellulose and hyaluronic acid: a nuclear magnetic resonance investigation” (Bioorg Med Chem, 2008).

The subject of assay [1] is Tamarindus indica. Briefly: Binding affinity to tamarind seed polysaccharide by NMR.
Assay [2] relates to Tamarindus indica. Briefly: Binding affinity to tamarind seed polysaccharide by dynamic dialysis.

Active and inactive are the calls of the source. The calls are words filed in the database; no cut-off is given here.

As to `CN1CCC(=C2c3ccccc3CC(=O)c3sccc32)CC1`, the result in assay [1] and in assay [2] was Active.
